Data published in patent US8541460B2, “PDK-1/Akt signaling inhibitors” (The Ohio State University, priority 2003, dated 2013).

Experiments:
RPMI-8226 = experiment: NCI DTP cell line screen (SRB), Leukemia; assay type: cell-based, human
Protocol: (§1) Screening of compounds 70 and 71 against several cancer cell lines The human tumor cell lines of the cancer screening panel are grown in RPMI 1640 medium containing 5% fetal bovine serum and 2 mM L-glutamine. For a typical screening experiment, cells are inoculated into 96 well microtiter plates in 100 μL at plating densities ranging from 5,000 to 40,000 cells/well depending on the doubling time of individual cell lines. After cell inoculation, the microtiter plates are incubated at 37° C., 5% CO2, 95% air and 100% relative humidity for 24 h prior to addition of experimental drugs.
(§2) After 24 h, two plates of each cell line are fixed in situ with TCA, to represent a measurement of the cell population for each cell line at the time of drug addition (Tz). Experimental drugs are solubilized in dimethyl sulfoxide at 400-fold the desired final maximum test concentration and stored frozen prior to use. At the time of drug addition, an aliquot of frozen concentrate is thawed and diluted to twice the desired final maximum test concentration with complete medium containing 50 μg/ml gentamicin. Additional four, 10-fold or ½ log serial dilutions are made to provide a total of five drug concentrations plus control. Aliquots of 100 μl of these different drug dilutions are added to the appropriate microtiter wells already containing 100 μl of medium, resulting in the required final drug concentrations.
(§3) Following drug addition, the plates are incubated for an additional 48 h at 37° C., 5% CO2, 95% air, and 100% relative humidity. For adherent cells, the assay is terminated by the addition of cold TCA. Cells are fixed in situ by the gentle addition of 50 μl of cold 50% (w/v) TCA (final concentration, 10% TCA) and incubated for 60 minutes at 4° C. The supernatant is discarded, and the plates are washed five times with tap water and air dried. Sulforhodamine B (SRB) solution (100 μl) at 0.4% (w/v) in 1% acetic acid is added to each well, and plates are incubated for 10 minutes at room temperature. After staining, unbound dye is removed by washing five times with 1% acetic acid and the plates are air dried. Bound stain is subsequently solubilized with 10 mM trizma base, and the absorbance is read on an automated plate reader at a wavelength of 515 nm. For suspension cells, the methodology is the same except that the assay is terminated by fixing settled cells at the bottom of the wells by gently adding 50 μl of 80% TCA (final concentration, 16% TCA). Using the seven absorbance measurements [time zero, (Tz), control growth, (C), and test growth in the presence of drug at the five concentration levels (Ti)], the percentage growth is calculated at each of the drug concentrations levels. Percentage growth inhibition is calculated as: [(Ti−Tz)/(C−Tz)]×100 for concentrations for which Ti>/=Tz [(Ti−Tz)/Tz]×100 for concentrations for which Ti<Tz
(§4) Three dose response parameters are calculated for each experimental agent. […] The drug concentration resulting in total growth inhibition (TGI) is calculated from Ti=Tz. […] Values are calculated for each of these three parameters if the level of activity is reached; however, if the effect is not reached or is exceeded, the value for that parameter is expressed as greater or less than the maximum or minimum concentration tested.
(§5) The methods described were used to test compounds 70 and 71 on a panel of sixty cell lines under a screening service provided by the Developmental Therapeutics Program at the National Institutes of Health. Shown in FIG. 1C are 1, RPMI-8226 leukemia cells; 2; NCI-H322M non-small cell lung cancer cells; 3, HT29 colon cancer cells; 4, U251 CNS cancer cells; 5, SK-MEL-28 melanoma cancer cells; 6, SK-OV-3 ovarian cancer cells; 7, RXF 393 renal cancer cells; 8, PC-3 prostate cancer cells; 9, MDA-MB-231 breast cancer cells.

A549/ATCC = experiment: NCI DTP cell line screen (SRB), Non-Small Cell Lung Cancer; assay type: cell-based
Protocol: as §1, §2, §3, §4, §5

EKVX = experiment: as above; assay type: cell-based
Protocol: as §1, §2, §3, §4, §5

HOP-62 = experiment: as above; assay type: cell-based
Protocol: as §1, §2, §3, §4, §5

NCI-H23 = experiment: as above; assay type: cell-based
Protocol: as §1, §2, §3, §4, §5

NCI-H322M = experiment: as above; assay type: cell-based
Protocol: as §1, §2, §3, §4, §5

NCI-H460 = experiment: as above; assay type: cell-based
Protocol: as §1, §2, §3, §4, §5

NCI-H522 = experiment: as above; assay type: cell-based, human
Protocol: as §1, §2, §3, §4, §5

**Q.** Which results are given for `NCC(=O)Nc1ccc(-n2nc(C(F)(F)F)cc2-c2ccc3c(ccc4ccccc43)c2)cc1` [Compound 70, 2-Amino-N-{4-[5-(2-phenanthrenyl)-3-(trifluoromethyl)-1H-pyrazol-1-yl]-phenyl}-acetamide]?
**A.** Percent Growth (RPMI-8226; Log10 Concentration −4.0): −31%; Percent Growth (RPMI-8226; Log10 Concentration −5.0): −51%; Percent Growth (RPMI-8226; Log10 Concentration −6.0): 42%; Percent Growth (RPMI-8226; Log10 Concentration −7.0): 72%; Percent Growth (RPMI-8226; Log10 Concentration −8.0): 85%; TGI (RPMI-8226; in M (unit assumed)): 2.84E−06; TGI (A549/ATCC): 2.96E−06; Percent Growth (A549/ATCC; Log10 Concentration −4.0): −31%; Percent Growth (A549/ATCC; Log10 Concentration −5.0): −57%; Percent Growth (A549/ATCC; Log10 Concentration −6.0): 51%; Percent Growth (A549/ATCC; Log10 Concentration −7.0): 86%; Percent Growth (A549/ATCC; Log10 Concentration −8.0): 102%; TGI (EKVX): 3.25E−06; CC50 (EKVX; Homo sapiens, read-out: LC50): 7.08 µM; Percent Growth (EKVX; Log10 Concentration −4.0): −65%; Percent Growth (EKVX; Log10 Concentration −5.0): −72%; Percent Growth (EKVX; Log10 Concentration −6.0): 75%; Percent Growth (EKVX; Log10 Concentration −7.0): 100%; Percent Growth (EKVX; Log10 Concentration −8.0): 110%; TGI (HOP-62): 3.01E−06; Percent Growth (HOP-62; Log10 Concentration −4.0): −57%; Percent Growth (HOP-62; Log10 Concentration −5.0): −70%; Percent Growth (HOP-62; Log10 Concentration −6.0): 64%; Percent Growth (HOP-62; Log10 Concentration −7.0): 93%; Percent Growth (HOP-62; Log10 Concentration −8.0): 90%; TGI (NCI-H23): 2.87E−06; Percent Growth (NCI-H23; Log10 Concentration −4.0): −66%; Percent Growth (NCI-H23; Log10 Concentration −5.0): −79%; Percent Growth (NCI-H23; Log10 Concentration −6.0): 67%; Percent Growth (NCI-H23; Log10 Concentration −7.0): 102%; Percent Growth (NCI-H23; Log10 Concentration −8.0): 101%; TGI (NCI-H322M): 2.18E−06; Percent Growth (NCI-H322M; Log10 Concentration −4.0): −57%; Percent Growth (NCI-H322M; Log10 Concentration −5.0): −84%; Percent Growth (NCI-H322M; Log10 Concentration −6.0): 43%; Percent Growth (NCI-H322M; Log10 Concentration −7.0): 51%; Percent Growth (NCI-H322M; Log10 Concentration −8.0): 40%; TGI (NCI-H460): 2.64E−06; Percent Growth (NCI-H460; Log10 Concentration −4.0): −33%; Percent Growth (NCI-H460; Log10 Concentration −5.0): −46%; Percent Growth (NCI-H460; Log10 Concentration −6.0): 34%; Percent Growth (NCI-H460; Log10 Concentration −7.0): 77%; Percent Growth (NCI-H460; Log10 Concentration −8.0): 97%; Percent Growth (NCI-H522; Log10 Concentration −4.0): −37%; Percent Growth (NCI-H522; Log10 Concentration −5.0): −66%; Percent Growth (NCI-H522; Log10 Concentration −6.0): 97%; Percent Growth (NCI-H522; Log10 Concentration −7.0): 122%; Percent Growth (NCI-H522; Log10 Concentration −8.0): 110%; TGI (NCI-H522; in M (unit assumed)): 3.94E−06
